Measured values as given in US20180369195A1, “COMBINATION THERAPY FOR TREATMENT OF MELANOMA” (The Regents of the University of California, priority 2015, published 2018).

Tests used:
β-catenin = experiment: Western blot of β-catenin; format: cell-based, human; conditions: G-361, DM-738, SK-MEL-2 cells, 20 μM 1-benzyl I3C, 24, 48 and 72 hours
Text: The western blots employed the following primary antibodies: mouse anti-MITF-M (Thermo-scientific), mouse anti-HSP 90 (BD Biosciences), mouse anti-CDK2, rabbit anti-CDK4, rabbit anti-CDK-6, mouse anti-rabbit BRAF, goat anti-LEF-1, rabbit anti-AXIN, mouse anti-BCL2, (Santa Cruz), rabbit anti-P21, mouse anti-Cyclin D1, rabbit anti-MEK-p, rabbit anti-MEK1/2, rabbit anti-GSK3β rabbit anti-LRP6, rabbit anti-LRP6-phospho (Cell signaling), mouse anti-β-catenin (Invitrogen).

canonical Wnt signaling = experiment: TOP Flash Wnt reporter assay in G361 cells; format: cell-based, human
Description: Murine fibroblast L cells stably transfected with a construct expressing high levels of human Wnt3A were used. The cells were grown in DMEM containing 4.5 g/L Glucose, 114 mg/L Sodium Pyruvate, and 2 mM L-glutamine, supplemented with 10% fetal bovine serum (Gemini Bio Products), 2 mM L-glutamine, and 2.5 ml of 10,000 U/ml penicillin/streptomycin mixture (Gibco, Life Technologies). Conditioned media was harvested in two batches, once during routine media change after 2 days of seeding the cells and once more when the plates were confluent. The cells were trypsinized as described earlier using 0.025% trypsin (Lonza) and pelleting the cells by a spin at 4000 rpm for 5 minutes and aspirating and filtering the supernatant through a 0.2 micron filter to obtain the conditioned media. The two batches of conditioned media were mixed 1:1 and stored in aliquots at −80° C. for future use.
The TOPflash/FOPflash (Millipore) reporter assay was performed on G361 cells to assess the effect of 1-benzyl I3C on β-catenin driven Wnt transcriptional activity. TOPflash is a TCF/LEF responsive luciferase construct encoding the firefly luciferase reporter under the control of a minimal (m) CMV promoter and tandem repeats of a TCF/LEF transcriptional response element (TRE). FOPflash is a similar construct with the LEF-1 binding site mutated which serves as the negative control. G361 cells were cultured to approximately 80% confluency in a 6 well clear bottom plate (Nunc). The TOPflash/FOPflash construct was transfected using Superfect Transfection Reagent (Qiagen.) according to the manufactures instructions. […] 20 μl of supernatant from each sample was combined with 100 μl luciferase substrate (Promega) and emitted fluorescence was measured using luminometer, Lumat LB 9507 (EG&G Berthold) and the relative light units (RLU) were recorded. The RLU/μg for each sample was calculated by dividing the data obtained with their specific protein concentration determined by a Bradford assay using 1× BioRad Protein Assay reagent and measuring O.D at 595 nm. […]

phosphorylated Erk/MAPK = experiment: Western blot of phosphorylated Erk/MAPK; format: cell-based, human; conditions: 200 μM I3C
Description: Western Blot analyses of samples electrophoretically fractionated on 12% acrylamide gels were carried out as previously described (Wagle et al., J. Clin. Oncol. 2011. 29(22):3085-3096; Nguyen et al., Chem. Biol. Interact. 2010. 186(3):255-266). […] The western blots employed the following primary antibodies: mouse anti-MITF-M (Thermo-scientific), mouse anti-HSP 90 (BD Biosciences), mouse anti-CDK2, rabbit anti-CDK4, rabbit anti-CDK-6, mouse anti-rabbit BRAF, goat anti-LEF-1, rabbit anti-AXIN, mouse anti-BCL2, (Santa Cruz), rabbit anti-P21, mouse anti-Cyclin D1, rabbit anti-MEK-p, rabbit anti-MEK1/2, rabbit anti-GSK3β rabbit anti-LRP6, rabbit anti-LRP6-phospho (Cell signaling), mouse anti-β-catenin (Invitrogen).

wild type BRAF = target: T1, wild type BRAF (Homo sapiens, UniProt P15056); experiment: In vitro BRAF kinase assay, in-vitro treated wild type BRAF from SK-MEL-2 cells; format: biochemical; conditions: pre-incubated 2 hours; 200 μM or 400 μM I3C, 10 μM Vemurafenib
T1 construct: Wild type BRAF was immunoprecipitated from SK-MEL-2 melanoma cells; endogenous in cells; host or cells: SK-MEL-2 human melanoma cells (ATCC)
Description: (§1) BRAF was pulled down from the cell lysates using anti-BRAF antibodies bound to protein G-coupled Sepharose beads, while IgG was used as a negative control. Post-immunoprecipitation supernatants were probed with anti BRAF antibody by western blots to determine pull-down efficiency. […] The reactions were terminated by adding 4× sodium dodecyl sulfate (SDS) sample buffer and boiling the mixture at 100° C. for 5 min. The samples were then electrophoresed, immunoblotted and probed for relative protein levels of phosphorylated MEK and total MEK to assess the kinase activity of the immunoprecipitated BRAF.

BRAF-V600E = target: T2, BRAF-V600E (Homo sapiens, UniProt P15056, V600E); experiment: BRAF kinase assay on BRAF immunoprecipitated from pretreated G-361 cells; format: biochemical; conditions: G-361 cells treated 48 hours; 200 μM or 400 μM I3C, 10 μM Vemurafenib
T2 construct: BRAF-V600E was immunoprecipitated from untreated G-361 cells and incubated in vitro; endogenous in cells; host or cells: G-361 human melanoma cells (ATCC)
Description: as §1

G361 cells = experiment: Flow cytometry analysis of DNA content, G361; format: cell-based, human; conditions: maximal dose of 200 μM I3C
Description: (§2) Melanoma cells were treated with the indicated concentrations of 1-benzyl […] in triplicates every 24 hours and harvested at the end of 24, 48 or 72 hours for cell cycle analysis. The DNA content of propidium iodide stained nuclei from harvested cells were determined by flow cytometry. Briefly, cells were hypotonically lysed in […] of DNA staining solution (0.5 mg/mL propidium iodide, 0.1% sodium citrate, and 0.05% Triton-X 100). Emitted fluorescence from the nuclear of wavelengths more than 585 nm was measured with a Coulter Elite instrument with laser output adjusted to deliver 15 mW at 488 nm. Ten thousand nuclei were analyzed from each sample at a rate of 300-500 nuclei/second. The percentage of cells within the G1, S, and G2/M phases of the cell cycle were determined by analysis with the Multicycle computer program provided by Phoenix Flow Systems in the Cancer Research Laboratory Microchemical Facility of the University of California, Berkeley.

SK-MEL-24 cells = experiment: CCK-8 proliferation assay, SK-MEL-24; format: cell-based, human; conditions: 200 μM I3C, 72 hours; wild type BRAF
Description: Subsequently inhibition of proliferation was assessed using Cell counting Kit-8 (Dojindo) as per the protocol in the user's manual. Briefly, 50 μl of the CCK-8 solution was added to each well along with 450 μl media and incubated for 2-3 hours. The absorbance was read at 450 nm and % inhibition was calculated for each condition standardizing DMSO to zero using the formula: [(100-Value of treatment/Value of DMSO treated control)×100]

SK-MEL-2 cells = experiment: Flow cytometry analysis of DNA content, SK-MEL-2; format: cell-based, human; conditions: all tested concentrations of I3C
Description: as §2

T1 sequence (P15056 whole entry): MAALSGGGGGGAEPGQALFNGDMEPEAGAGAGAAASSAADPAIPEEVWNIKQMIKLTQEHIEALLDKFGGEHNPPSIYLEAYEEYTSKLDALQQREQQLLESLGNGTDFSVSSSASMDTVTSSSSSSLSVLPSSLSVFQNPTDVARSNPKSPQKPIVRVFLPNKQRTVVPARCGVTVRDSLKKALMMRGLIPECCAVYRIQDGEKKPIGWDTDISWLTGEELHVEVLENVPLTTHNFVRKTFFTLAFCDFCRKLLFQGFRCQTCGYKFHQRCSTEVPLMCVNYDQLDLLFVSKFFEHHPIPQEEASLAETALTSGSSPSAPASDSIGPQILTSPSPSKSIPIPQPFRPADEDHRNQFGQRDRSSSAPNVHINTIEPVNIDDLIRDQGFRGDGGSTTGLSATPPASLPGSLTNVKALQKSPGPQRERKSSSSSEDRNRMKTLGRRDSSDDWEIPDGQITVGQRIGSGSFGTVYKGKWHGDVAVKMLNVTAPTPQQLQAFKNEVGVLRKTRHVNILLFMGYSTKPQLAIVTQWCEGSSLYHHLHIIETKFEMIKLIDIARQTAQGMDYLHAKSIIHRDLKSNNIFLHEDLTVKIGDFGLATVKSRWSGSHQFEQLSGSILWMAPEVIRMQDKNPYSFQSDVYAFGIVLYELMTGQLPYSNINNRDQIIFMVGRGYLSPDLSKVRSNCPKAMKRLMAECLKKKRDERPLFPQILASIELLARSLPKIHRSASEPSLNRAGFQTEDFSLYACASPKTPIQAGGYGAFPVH
T2 sequence (P15056 whole entry V600E): as the sequence (P15056 whole entry) above, with V600E counted along it

SMILES	β-catenin protein levels (β-catenin)	Wnt signaling (TOP luciferase activity) (canonical Wnt signaling; G361 cells in Wnt conditioned media, 1-benzyl I3C 24 hours)	1-benzyl I3C induced inhibition of luciferase activity, constitutively active LRP6 transfected cells (canonical Wnt signaling; G361 cells, 1-benzyl I3C 24 hours)	Wnt signaling (luciferase activity), wild-type vector transfected cells (canonical Wnt signaling; G361 cells, 1-benzyl I3C 24 hours vs vehicle)	phosphorylated Erk/MAPK levels (phosphorylated Erk/MAPK; G-361 and DM738 cells, 72 hour time course)	phosphorylated Erk/MAPK levels (phosphorylated Erk/MAPK; G-361 cells, 48 hours, 10 μM Vemurafenib or 10 μM U0126)	phosphorylated Erk/MAPK levels (phosphorylated Erk/MAPK; SK-MEL-2 cells, 72 hour time course)	wild type BRAF enzymatic activity, direct in vitro incubation (wild type BRAF)	BRAF-V600E enzymatic activity (phosphorylated MEK) after cellular treatment (BRAF-V600E)	G1 cell cycle arrest (G361 cells)	sensitivity to anti-proliferative effects (SK-MEL-24 cells)	G1 cell cycle arrest (SK-MEL-2 cells)
OCc1cn(Cc2ccccc2)c2ccccc12 [1-benzyl I3C, 1-benzyl indole-3-carbinol]	significantly downregulated	Wnt signaling was significantly attenuated	significantly rescued	significantly inhibited the Wnt signaling	–	–	–	–	–	–	–	–
OCc1c[nH]c2ccccc12 [I3C, indole-3-carbinol]	–	–	–	–	strongly down regulated	down regulated	no effect	no effect	significantly inhibited BRAF-V600E enzymatic activity	significant G1 cell cycle arrest	significantly less sensitive	remained in a rapidly proliferating state
